What follows are compounds tested against OXA-48 (Klebsiella pneumoniae, UniProt Q6XEC0) (assay: biochemical). Conditions: not given.
Type: biochemical

OXA-48, sequence (Q6XEC0 whole entry, looked up, species assumed): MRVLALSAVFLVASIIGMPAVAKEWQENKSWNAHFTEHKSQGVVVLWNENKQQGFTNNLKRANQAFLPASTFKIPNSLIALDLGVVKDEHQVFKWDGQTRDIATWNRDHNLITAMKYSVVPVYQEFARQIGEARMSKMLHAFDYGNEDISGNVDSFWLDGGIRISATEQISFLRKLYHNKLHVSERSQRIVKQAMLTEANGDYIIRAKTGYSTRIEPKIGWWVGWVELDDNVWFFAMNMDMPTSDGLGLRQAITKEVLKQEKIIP

SMILES	Ki
COc1cc(-c2cc(O)cc(C(=O)O)c2)ccc1C(=O)O [CDD-2724, 5-hydroxy-3′-methoxy-[1,1′-biphenyl]-3,4′-dicarboxylic acid]	0.63 ± 0.13 µM
CNC(=O)CCc1ccc(CNc2cccc(CCCNCc3ccccc3-c3cccc(C(=O)O)c3)c2)cc1 [CDD-2819, 2′-(((3-(3-((4-(3-(methylamino)-3-oxopropyl)benzyl)amino)phenyl)propyl)amino)methyl)-[1,1′-biphenyl]-3-carboxylic acid]	88 ± 4.4 µM

Same assay, conditions: nitrocefin 30 μM, OXA-48 0.1 nM; read-out: OXA-48 Ki

Ki	SMILES
127 ± 86 µM	Nc1cccc(CCCNCc2ccccc2-c2cccc(C(=O)O)c2)c1 [CDD-2820, 2′-(((3-(3-aminophenyl)propyl)amino)methyl)-[1,1′-biphenyl]-3-carboxylic acid]
7.6 ± 1 µM	CN(C)C(=O)C1CCN(c2ccc(CNCc3ccccc3-c3cccc(C(=O)O)c3)cc2C#N)CC1 [CDD-2836, 2′-(((3-cyano-4-(4-(dimethylcarbamoyl)piperidin-1-yl)benzyl)amino)methyl)-[1,1′-biphenyl]-3-carboxylic acid]

Same assay, conditions: relative to the related analogue named in the sentence

SMILES	fold decrease in Ki / enhancement of potency against OXA-48
COc1cc(-c2cc(O)cc(C(=O)O)c2)ccc1C(=O)O [CDD-2724, 5-hydroxy-3′-methoxy-[1,1′-biphenyl]-3,4′-dicarboxylic acid]	2 fold

These compounds were tested against NDM-1 (Klebsiella pneumoniae, UniProt C7C422) (assay: not given). Conditions: not given.
Type: biochemical

NDM-1, sequence (C7C422 whole entry, looked up, species assumed): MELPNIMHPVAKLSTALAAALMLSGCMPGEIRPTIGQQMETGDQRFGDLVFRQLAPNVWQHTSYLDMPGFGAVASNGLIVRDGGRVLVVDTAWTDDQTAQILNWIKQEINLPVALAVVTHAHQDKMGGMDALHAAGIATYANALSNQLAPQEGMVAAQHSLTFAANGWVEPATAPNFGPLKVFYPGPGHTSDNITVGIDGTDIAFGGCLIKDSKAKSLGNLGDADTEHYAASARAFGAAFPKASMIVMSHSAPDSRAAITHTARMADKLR

SMILES	fold reduction of potency against NDM-1	Ki	NDM-1 Ki (μM)	fold improvement in potency against NDM-1
CNC(=O)CCc1ccc(CNCc2cccc(NCc3ccc(-c4ccc(C(=O)O)c(O)c4)o3)c2)cc1 [CDD-2335, 2-hydroxy-4-(5-(((3-(((4-(3-(methylamino)-3-oxopropyl)benzyl)amino)methyl)phenyl)amino)methyl)furan-2-yl)benzoic acid]	4 fold			
CNCc1ccc(-c2ccc(C(=O)O)c(O)c2)o1 [CDD-2363, 2-hydroxy-4-(5-((methylamino)methyl)furan-2-yl)benzoic acid]		397 ± 113 µM	weak potency	
CNCc1cccc(NCc2ccc(-c3ccc(C(=O)O)cc3)o2)c1 [CDD-2463, 4-(5-(((3-((methylamino)methyl)phenyl)amino)methyl)furan-2-yl)benzoic acid]	2.5 fold	8.5 µM		
NCc1cccc(NCc2ccc(-c3ccc(C(=O)O)c(O)c3)s2)c1 [CDD-2600, 4-(5-(((3-(aminomethyl)phenyl)amino)methyl)thiophen-2-yl)-2-hydroxybenzoic acid]		1.6 ± 0.3 µM		2 fold
NCc1cccc(NCc2cc(C(=O)O)cc(-c3ccc(C(=O)O)c(O)c3)c2)c1 [CDD-2897, 5-(((3-(aminomethyl)phenyl)amino)methyl)-3′-hydroxy-[1,1′-biphenyl]-3,4′-dicarboxylic acid]	more than 10 fold	71 ± 37 µM		
Cc1cccc(NCc2cccc(-c3ccc(C(=O)O)c(O)c3)c2)c1 [CDD-2907, 3-hydroxy-3′-((m-tolylamino)methyl)-[1,1′-biphenyl]-4-carboxylic acid]		> 100 µM	near-complete loss of potency	
CC(=O)NCc1cccc(NCc2cccc(-c3ccc(C(=O)O)c(O)c3)c2)c1 [CDD-2919, 3′-(((3-(acetamidomethyl)phenyl)amino)methyl)-3-hydroxy-[1,1′-biphenyl]-4-carboxylic acid]		> 100 µM	near-complete loss of potency	
NCc1cccc(NCc2cncc(-c3ccc(C(=O)O)c(O)c3)c2)c1 [CDD-2998, 4-(5-(((3-(aminomethyl)phenyl)amino)methyl)pyridin-3-yl)-2-hydroxybenzoic acid]		1.9 ± 0.6 µM		

Same assay, conditions: imipenem 40 μM, NDM-1 2 nM, 10 μM ZnSO4

SMILES	Ki
CNC(=O)CCc1ccc(CNCc2cccc(NCc3ccc(-c4ccc(C(=O)O)c(O)c4)o3)c2)cc1 [CDD-2335, 2-hydroxy-4-(5-(((3-(((4-(3-(methylamino)-3-oxopropyl)benzyl)amino)methyl)phenyl)amino)methyl)furan-2-yl)benzoic acid]	13 ± 1.5 µM
CNC(=O)CCc1ccc(CNCc2cccc(NCc3ccc(-c4ccccc4CC(=O)O)cc3)c2)cc1 [CDD-2336, 2-(4′-(((3-(((4-(3-(methylamino)-3-oxopropyl)benzyl)amino)methyl)phenyl)amino)methyl)-[1,1′-biphenyl]-2-yl)acetic acid]	144 ± 16 µM
CNC(=O)CCC1CCN(C(=O)c2ccc(CNCc3ccc(O)c(C(=O)O)c3)s2)CC1 [CDD-2371, 2-hydroxy-5-((((5-(4-(3-(methylamino)-3-oxopropyl)piperidine-1-carbonyl)thiophen-2-yl)methyl)amino)methyl)benzoic acid]	217 ± 46 µM
CNC(=O)C1CCC(C(=O)NCc2ccc(NCc3ccc(O)c(C(=O)O)c3)nc2)CC1 (stereo not shown) [CDD-2395, 2-hydroxy-5-(((5-((4-(methylcarbamoyl)cyclohexane-1-carboxamido)methyl)pyridin-2-yl)amino)methyl)benzoic acid]	153 ± 28 µM
CNCc1cccc(NCc2ccc(-c3ccc(O)c(C(=O)O)c3)o2)c1 [CDD-2510, 2-hydroxy-5-(5-(((3-((methylamino)methyl)phenyl)amino)methyl)furan-2-yl)benzoic acid]	60 ± 10 µM
NCc1cccc(NCc2ccc(-c3cccc(C(=O)O)c3O)o2)c1 [CDD-2567, 3-(5-(((3-(aminomethyl)phenyl)amino)methyl)furan-2-yl)-2-hydroxybenzoic acid]	24 ± 1.5 µM
CNCc1cccc(NCc2ccc(-c3cccc(C(=O)O)c3)o2)c1 [CDD-2602, 3-(5-(((3-((methylamino)methyl)phenyl)amino)methyl)furan-2-yl)benzoic acid]	46 ± 11 µM
NCc1cccc(NCc2ccc(-c3ccc(C(=O)O)c(O)c3)cc2)c1 [CDD-2615, 4′-(((3-(aminomethyl)phenyl)amino)methyl)-3-hydroxy-[1,1′-biphenyl]-4-carboxylic acid]	14 ± 1.1 µM
CNCc1cccc(NCc2cccc(-c3ccc(C(=O)O)c(O)c3)c2)c1 [CDD-2906, 3-hydroxy-3′-(((3-((methylamino)methyl)phenyl)amino)methyl)-[1,1′-biphenyl]-4-carboxylic acid]	11 ± 2 µM
CNC(=O)Cc1cccc(NCc2cccc(-c3ccc(C(=O)O)c(O)c3)c2)c1 [CDD-2920, 3-hydroxy-3′-(((3-(2-(methylamino)-2-oxoethyl)phenyl)amino)methyl)-[1,1′-biphenyl]-4-carboxylic acid]	87 ± 53 µM
NCc1cc(O)cc(NCc2cccc(-c3ccc(C(=O)O)c(O)c3)c2)c1 [CDD-2974, 3′-(((3-(aminomethyl)-5-hydroxyphenyl)amino)methyl)-3-hydroxy-[1,1′-biphenyl]-4-carboxylic acid]	3.5 ± 1.4 µM
NCc1cncc(NCc2cccc(-c3ccc(C(=O)O)c(O)c3)c2)c1 [CDD-2975, 3′-(((5-(aminomethyl)pyridin-3-yl)amino)methyl)-3-hydroxy-[1,1′-biphenyl]-4-carboxylic acid]	25 ± 14 µM
NCc1cccc(NCc2cc(-c3ccc(C(=O)O)c(O)c3)ccn2)c1 [CDD-3059, 4-(2-(((3-(aminomethyl)phenyl)amino)methyl)pyridin-4-yl)-2-hydroxybenzoic acid]	4.8 ± 0.4 µM
NCc1cccc(NCc2ccnc(-c3ccc(C(=O)O)c(O)c3)c2)c1 [CDD-3060, 4-(4-(((3-(aminomethyl)phenyl)amino)methyl)pyridin-2-yl)-2-hydroxybenzoic acid]	8.1 ± 2 µM

Each compound was assayed against KPC-2 (Klebsiella pneumoniae, UniProt Q9F663) (assay: KPC-2 enzyme inhibition (Ki)). Conditions: not given.
Type: biochemical
From the text: Several hits were identified from the qDOS38_1 library against the KPC-2 enzyme. All compounds were synthesized without linker C1a. Among the hit compounds, CDD-2312 had the highest enrichment score of 5.9 but a lower count number of 115 compared to other libraries screened at the same time.

KPC-2, sequence (Q9F663 whole entry, looked up, species assumed): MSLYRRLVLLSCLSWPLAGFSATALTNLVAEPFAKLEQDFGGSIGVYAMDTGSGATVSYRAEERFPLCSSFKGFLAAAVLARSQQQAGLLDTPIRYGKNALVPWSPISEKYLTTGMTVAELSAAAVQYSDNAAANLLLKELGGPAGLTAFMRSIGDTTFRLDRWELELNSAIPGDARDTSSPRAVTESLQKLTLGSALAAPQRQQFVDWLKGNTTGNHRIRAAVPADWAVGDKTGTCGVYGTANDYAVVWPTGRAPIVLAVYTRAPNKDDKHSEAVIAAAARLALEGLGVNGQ

SMILES	Ki
CNC(=O)c1cncc(-c2cnc(NCC(=O)O)nc2)c1 [CDD-2308, (5-(5-(methylcarbamoyl)pyridin-3-yl)pyrimidin-2-yl)glycine]	3580 ± 1150 µM
CNC(=O)c1ccc(-c2cnc(NCC(=O)O)nc2)cc1F [CDD-2309, (5-(3-fluoro-4-(methylcarbamoyl)phenyl)pyrimidin-2-yl)glycine]	980 ± 180 µM
CNC(=O)c1cc2cc(-c3cnc(NCC(=O)O)nc3)ccc2nc1C [CDD-2310, (5-(2-methyl-3-(methylcarbamoyl)quinolin-6-yl)pyrimidin-2-yl)glycine]	1240 ± 532 µM
COc1cc(-c2cnc(NCC(=O)O)nc2)cc(C=O)c1OCC(=O)O [CDD-2311, (5-(4-(carboxymethoxy)-3-formyl-5-methoxyphenyl)pyrimidin-2-yl)glycine]	522 ± 113 µM

Source: patent US20250325542A1, “INHIBITORS OF ANTIMOCROBIAL RESISTANCE AND METHOS USING SAME” (Baylor College of Medicine, priority 2022, published 2025)
